Where a SMILES comes first, the peptide text is derived from it. [ ]: non-standard residue; d: D form. Lys(Thioacetyl) = CC(=S)NCCCC[C@H](N)C(=O)O
Legend:
[1] = molecular target: T1, NAD-dependent protein deacetylase sirtuin-2 (Homo sapiens, UniProt Q8IXJ6); assay: Inhibition of recombinant SIRT2 preincubated for 5 mins before addition of substrate measured after 3 hrs by fluorescence-based assay
T1 sequence (Q8IXJ6 whole entry): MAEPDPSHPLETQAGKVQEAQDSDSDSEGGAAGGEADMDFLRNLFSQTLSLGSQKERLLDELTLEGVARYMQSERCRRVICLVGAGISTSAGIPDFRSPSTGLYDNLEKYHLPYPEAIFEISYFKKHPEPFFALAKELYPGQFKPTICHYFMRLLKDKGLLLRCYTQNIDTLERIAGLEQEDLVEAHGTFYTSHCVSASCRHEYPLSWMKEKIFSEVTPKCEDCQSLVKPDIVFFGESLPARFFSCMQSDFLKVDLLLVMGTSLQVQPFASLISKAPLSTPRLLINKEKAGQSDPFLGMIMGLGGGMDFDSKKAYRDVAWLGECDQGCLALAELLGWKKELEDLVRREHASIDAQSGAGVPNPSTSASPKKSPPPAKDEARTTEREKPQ

[2] = molecular target: T2, NAD-dependent protein deacetylase sirtuin-1 (Homo sapiens, UniProt Q96EB6); assay: Inhibition of recombinant SIRT1 preincubated for 5 mins before addition of substrate measured after 1 hr by fluorescence-based assay
T2 sequence (Q96EB6 whole entry): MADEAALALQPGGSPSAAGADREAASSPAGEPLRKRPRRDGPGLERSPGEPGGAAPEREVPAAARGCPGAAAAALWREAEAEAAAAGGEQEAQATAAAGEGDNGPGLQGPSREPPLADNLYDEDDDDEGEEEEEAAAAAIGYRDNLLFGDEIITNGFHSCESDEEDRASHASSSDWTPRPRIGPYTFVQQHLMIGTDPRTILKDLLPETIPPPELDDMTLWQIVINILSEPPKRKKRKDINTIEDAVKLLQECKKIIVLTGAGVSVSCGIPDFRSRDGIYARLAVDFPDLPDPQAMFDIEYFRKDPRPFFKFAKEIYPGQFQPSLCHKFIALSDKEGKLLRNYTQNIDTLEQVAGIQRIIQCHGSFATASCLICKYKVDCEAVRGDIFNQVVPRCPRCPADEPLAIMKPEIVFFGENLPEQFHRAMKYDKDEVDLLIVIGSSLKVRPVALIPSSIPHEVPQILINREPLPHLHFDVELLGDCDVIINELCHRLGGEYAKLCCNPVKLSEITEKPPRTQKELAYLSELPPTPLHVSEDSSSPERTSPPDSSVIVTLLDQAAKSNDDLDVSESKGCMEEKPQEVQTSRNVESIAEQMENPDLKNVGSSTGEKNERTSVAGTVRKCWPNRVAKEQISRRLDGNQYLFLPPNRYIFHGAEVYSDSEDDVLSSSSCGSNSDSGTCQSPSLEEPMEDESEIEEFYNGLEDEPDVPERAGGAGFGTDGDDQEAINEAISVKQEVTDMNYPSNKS

[3] = molecular target: T3, NAD-dependent protein deacetylase sirtuin-1 (Homo sapiens) (UniProt Q96EB6); assay: Inhibition of recombinant SIRT1 at 200 uM preincubated for 5 mins before addition of substrate measured after 1 hr by fluorescence-based assay
T3 sequence (whole entry): T2 sequence (Q96EB6 whole entry)

[4] = molecular target: T4, NAD-dependent protein deacetylase sirtuin-2 (Homo sapiens) (UniProt Q8IXJ6); assay: Inhibition of recombinant SIRT2 at 200 uM preincubated for 5 mins before addition of substrate measured after 3 hrs by fluorescence-based assay
T4 sequence (whole entry): T1 sequence (Q8IXJ6 whole entry)

[5] = molecular target: T2, NAD-dependent protein deacetylase sirtuin-1; assay: Inhibition of GST-tagged SIRT1 expressed in Escherichia coli after 10 mins by Dixon plot
[6] = molecular target: T1, NAD-dependent protein deacetylase sirtuin-2; assay: Inhibition of GST-tagged SIRT2 expressed in Escherichia coli after 60 mins by Dixon plot

| IC50 [1] | IC50 [2] | Structure (SMILES) | further results |
| --- | --- | --- | --- |
| 31.1 µM | 4.3 µM | CC[C@H](C)[C@H](NC(=O)[C@@H](NC(=O)[C@H](CCCCNC(C)=S)NC(=O)[C@H](CC(=O)O)NC(=O)[C@@H](N)Cc1cnc[nH]1)[C@@H](C)O)C(=O)O (H-HD[Lys(Thioacetyl)]TI-OH) |  |
| 7.6 µM | 0.23 µM | CC[C@H](C)[C@H](NC(=O)[C@@H](NC(=O)[C@H](CCCCNC(C)=S)NC(=O)[C@H](CCCCN)NC(=O)[C@@H](N)Cc1cnc[nH]1)[C@@H](C)O)C(=O)O (H-HK[Lys(Thioacetyl)]TI-OH) |  |
| 37.4 µM | 3.2 µM | CC[C@H](C)[C@H](NC(=O)[C@@H](NC(=O)[C@H](CCCCNC(C)=S)NC(=O)[C@H](CC(=O)O)NC(=O)[C@H](C)N)[C@@H](C)O)C(=O)O (H-AD[Lys(Thioacetyl)]TI-OH) |  |
| 6.9 µM | 0.18 µM | CC[C@H](C)[C@H](NC(=O)[C@@H](NC(=O)[C@H](CCCCNC(C)=S)NC(=O)[C@H](CCCCN)NC(=O)[C@@H](N)CO)[C@@H](C)O)C(=O)O (H-SK[Lys(Thioacetyl)]TI-OH) |  |
| 29.1 µM | 5 µM | CC[C@H](C)[C@H](NC(=O)[C@@H](NC(=O)[C@H](CCCCNC(C)=S)NC(=O)[C@H](CC(=O)O)NC(=O)[C@@H](N)CO)[C@@H](C)O)C(=O)O (H-SD[Lys(Thioacetyl)]TI-OH) |  |
| 44 µM | 11.1 µM | CC(=S)NCCCC[C@H](NC(=O)[C@H](CC(=O)O)NC(=O)[C@@H](N)CO)C(=O)N[C@H](C(=O)O)[C@@H](C)O (H-SD[Lys(Thioacetyl)]T-OH) |  |
| 33.3 µM | 0.9 µM | CC(=S)NCCCC[C@H](NC(=O)[C@H](CCCCN)NC(=O)[C@@H](N)Cc1cnc[nH]1)C(=O)N[C@@H](CC(C)C)C(=O)N[C@@H](C)C(=O)O (H-HK[Lys(Thioacetyl)]LA-OH) |  |
| 72.8 µM | 6.7 µM | CC[C@H](C)[C@H](NC(=O)[C@H](C)NC(=O)[C@H](CCCCNC(C)=S)NC(=O)[C@H](CC(=O)O)NC(=O)[C@@H](N)CO)C(=O)O (H-SD[Lys(Thioacetyl)]AI-OH) |  |
| 175 µM | 12 µM | CC(=S)NCCCC[C@H](NC(=O)[C@@H](N)CC(=O)O)C(=O)N[C@H](C(=O)O)[C@@H](C)O |  |
|  |  | CC(=S)NCCCC[C@H](NC(=O)[C@H](CC(=O)O)NC(=O)[C@@H](N)CO)C(=O)O | inhibition [3]: 11.8%; inhibition [4]: 13.9% |
| 3.8 µM | 0.18 µM | CSCC[C@H](NC(=O)[C@H](C)NC(=O)[C@H](CCCCNC(C)=S)NC(=O)[C@H](CCCCN)NC(=O)[C@@H](N)Cc1cnc[nH]1)C(=O)O (H-HK[Lys(Thioacetyl)]AM-OH) |  |
| 19.9 µM | 0.48 µM | CC(=S)NCCCC[C@H](NC(=O)[C@H](CCCCN)NC(=O)[C@@H](N)Cc1cnc[nH]1)C(=O)N[C@@H](CC(C)C)C(=O)O (H-HK[Lys(Thioacetyl)]L-OH) |  |
| 6.4 µM | 0.33 µM | CSCC[C@H](NC(=O)[C@H](CC(C)C)NC(=O)[C@H](CCCCNC(C)=S)NC(=O)[C@H](CCCCN)NC(=O)[C@@H](N)Cc1cnc[nH]1)C(=O)O (H-HK[Lys(Thioacetyl)]LM-OH) | IC50 [5]: 10 µM; IC50 [6]: 10 µM |
| 16.5 µM | 0.55 µM | CSCC[C@H](NC(=O)[C@H](CC(C)C)NC(=O)[C@H](CCCCNC(C)=S)NC(=O)[C@H](C)NC(=O)[C@@H](N)Cc1cnc[nH]1)C(=O)O (H-HA[Lys(Thioacetyl)]LM-OH) |  |
| 92.9 µM | 10.8 µM | CSCC[C@H](NC(=O)[C@H](CC(C)C)NC(=O)[C@H](CCCCNC(C)=S)NC(=O)[C@H](CC(=O)O)NC(=O)[C@@H](N)CO)C(=O)O (H-SD[Lys(Thioacetyl)]LM-OH) |  |
| 8.5 µM | 0.38 µM | CSCC[C@H](NC(=O)[C@H](CC(C)C)NC(=O)[C@H](CCCCNC(C)=S)NC(=O)[C@H](CCCCN)NC(=O)[C@H](C)N)C(=O)O (H-AK[Lys(Thioacetyl)]LM-OH) |  |
| 5.5 µM | 0.22 µM | CC[C@H](C)[C@H](NC(=O)[C@@H](NC(=O)[C@H](CCCCNC(C)=S)NC(=O)[C@H](C)NC(=O)[C@@H](N)CO)[C@@H](C)O)C(=O)O (H-SA[Lys(Thioacetyl)]TI-OH) |  |
| 49.8 µM | 0.33 µM | CSCC[C@H](NC(=O)[C@H](CC(C)C)NC(=O)[C@H](CCCCNC(C)=S)NC(=O)[C@@H](N)CCCCN)C(=O)O (H-K[Lys(Thioacetyl)]LM-OH) |  |
| 151 µM | 0.57 µM | CC(=S)NCCCC[C@H](NC(=O)[C@@H](N)CCCCN)C(=O)N[C@@H](CC(C)C)C(=O)O |  |
| 238 µM | 23.2 µM | CC[C@H](C)[C@H](NC(=O)[C@H](CC(C)C)NC(=O)[C@H](CCCCNC(C)=S)NC(=O)[C@H](CC(=O)O)NC(=O)[C@@H](N)CO)C(=O)O (H-SD[Lys(Thioacetyl)]LI-OH) |  |
| 10.6 µM | 1.4 µM | CSCC[C@H](NC(=O)[C@@H](NC(=O)[C@H](CCCCNC(C)=S)NC(=O)[C@H](CC(=O)O)NC(=O)[C@@H](N)CO)[C@@H](C)O)C(=O)O (H-SD[Lys(Thioacetyl)]TM-OH) |  |
| 84.6 µM | 8.8 µM | CC(=S)NCCCC[C@H](NC(=O)[C@H](CC(=O)O)NC(=O)[C@@H](N)CO)C(=O)N[C@H](C(=O)N[C@@H](C)C(=O)O)[C@@H](C)O (H-SD[Lys(Thioacetyl)]TA-OH) |  |
| 83.4 µM | 4.5 µM | CC[C@H](C)[C@H](NC(=O)[C@@H](NC(=O)[C@H](CCCCNC(C)=S)NC(=O)[C@@H](N)CC(=O)O)[C@@H](C)O)C(=O)O (H-D[Lys(Thioacetyl)]TI-OH) |  |
